Patent publication US7659246B2, “Treatment of osteoarthritis” (Promics Pty Limited, priority 2002, dated 2010)

Columns and labels:
osteoarthritis [1] = assay: Clinical trial of PMX53 in arthritic dogs; type: in vivo, dog
From the text: A single oral dose of the drug appears to be effective for at least 3-4 days, even in the most severe case. […] The individual cases are listed below.

induced osteoarthritis = assay: Induced osteoarthritis in dogs (cruciate ligament transection); type: in vivo, dog
Protocol: Four healthy dogs were obtained from a group of pound dogs destined for euthanasia. The dogs were acclimatised to the experimental canine ward for 7 days before the experiment commenced. Dogs were housed individually and fed on a mixture of dry dog food, canned dog food and occasional raw bones. They were walked for 10 minutes twice daily throughout the trial. The dogs were of age and sex as follows:
PMX53 was synthesised by the Institute of Molecular Bioscience at the University of Queensland. The drug was dissolved in 30% polyethylene glycol 400 (PEG 400) in normal saline. The solution was made to a concentration of 3 mg/ml. The placebo vehicle was 30% PEG 400 in saline. All treatments were sterilised by filtration and stored at 4° C. The dogs were given the drug or placebo at a dose rate of 1 ml/10 kg body weight. The treatments were assigned to the dogs in a random fashion. The drug containers were marked so that the attendants who scored the gait were unaware of the treatment given to each dog.
The cruciate ligament of the left stifle (knee) joint was transected surgically by an experienced specialist surgeon. The incision in the skin was approximately 2 centimeters long. The dogs were given postoperative pain relief, including epidural analgesia and opioids. At 24 hours after the surgery all dogs were limping. No supplementary analgesic therapy was deemed necessary after day 1. All dogs tolerated the procedure very well.
The drug was given as a subcutaneous injection (0.3 mg/kg) into the loose skin on the dorsum of the neck once daily. […] Dogs were assessed twice daily for lameness while they were walked. The scoring was done by at least two people.

dermal Arthus reaction = assay: Reverse passive dermal Arthus reaction in the rat; type: in vivo; conditions: intravenous, oral and topical pretreatment
[2] = system: antigen-induced arthritis of the knee joint; assay: Rat monoarticular antigen-induced arthritis; type: in vivo
Protocol: Female Wistar rats (150-250 g) were obtained from the Central Animal Breeding House, University of Queensland. […] Each rat received a subcutaneous injection of this suspension (0.5 mL) on days 1 and 7. On day 12-28, rats were separated into separate cages, and body weight and food and water intake monitored daily. Rats received either ordinary tap water or drinking water containing AcF-[OPdChaWR] (1). […] On day 14, rats were anaesthetised and their hind limbs shaven. […] Rats were euthanased on day 28, and whole blood collected into an Eppendorf tube and allowed to spontaneously clot on ice. Blood samples were centrifuges (11,000 rpm×3 min) and serum collected and stored at −20° C. until analysis of serum cytokines using an ELISA. Each knee capsule was lavaged with 100 μL saline, and the total cell count determined using a haemocytometer. In addition, an aliquot of the knee joint lavage fluid was dropped onto a glass slide, and allowed to air dry. Once dry, cells were stained with a differential stain (Diff Quick) and a differential cell count was performed using a 40× dry lens microscope. The remaining lavage fluids from each joint were stored at −20° C. until later analysis of intra-articular cytokine levels using an ELISA. Each knee joint was severed, trimmed leaving only the area of interest and the skin was split with a scalpel blade. Knee samples were stored in 10% buffered formalin for >10 d. Knees were then rinsed with distilled water and placed in a saturated solution of EDTA solution for 21 d for decalcification before being embedded in paraffin wax. Knee tissue samples were prepared using standard histological techniques as described in Example 1, and stained using an haematoxylin and eosin stain. Histological slides were analysed in a blind fashion. […] In no samples was there evidence of significant bone erosion. Samples were thawed on the day of ELISA analysis, and serum or intra-articular lavage fluid TNFα and IL-6 concentrations were determined from a standard curve, using an ELISA as described in Example 1.

osteoarthritis [3] = assay: Clinical trial of PMX53 in arthritic dogs; type: in vivo, dog; conditions: dogs with osteoarthritis; sc injection
[4] = dogs, day 28, compared to arthritic controls, FIG. 7

CC(=O)N[C@@H](Cc1ccccc1)C(=O)N[C@H]1CCCNC(=O)[C@H](CCCNC(=N)N)NC(=O)[C@H](Cc2c[nH]c3ccccc23)NC(=O)[C@@H](CC2CCCCC2)NC(=O)[C@@H]2CCCN2C1=O [PMX53, AcF-[OPdChaWR]]
joint pain on manipulation (osteoarthritis [1]; Case #1): no joint pain on manipulation | morning stiffness (osteoarthritis [1]; Case #1): no morning stiffness | range of joint movement (osteoarthritis [1]; Case #1): not improved | time to very noticeable improvement after injection (osteoarthritis [1]; Case #1, 0.3 mg/kg subcutaneously): ≤ 24 h | improvement after treatment (osteoarthritis [1]; Case #1, 1 mg/kg oral once daily, then 0.3 mg/kg sc once daily): marked | side effects (osteoarthritis [1]; Case #1, injections for 12 months): no apparent side effects | attitude (owner report) (osteoarthritis [1]; Case #2): noticeable improvement in attitude | lameness (osteoarthritis [1]; Case #2, 1 mg/kg orally 4 weeks, then 0.3 mg/kg sc once daily): did not improve | response to therapy (osteoarthritis [1]; Case #3, 1 mg/kg per day orally, then 0.3 mg/kg sc as required, no NSAIDs): responded very well | side effects (osteoarthritis [1]; Case #3, after 9 months of treatment): no side effects | control of clinical signs (osteoarthritis [1]; Case #4 (rheumatoid arthritis), 0.3 mg/kg SC once a week alone): did not completely control the clinical signs | clinical result in combination with prednisolone (osteoarthritis [1]; Case #4, PMX53 once a week with prednisolone 2.5 mg PO once every second day): excellent results | duration of effect of a single oral dose (osteoarthritis [1]; dogs with osteoarthritis, oral): 3 to 4 days | side effects (osteoarthritis [1]; dogs, up to 12 months treatment): No side effects | cartilage erosion (induced osteoarthritis; dog #2 (drug treated), also seen in placebo dog #4, day 28): mild cartilage erosion | time of treatment to improvement in the degree of lameness (induced osteoarthritis; dogs n=2, 0.3 mg/kg sc once daily, placebo 10-13 days, FIG. 6b): 4 to 6 days | clinical impression of ability to walk (induced osteoarthritis; dogs, 0.3 mg/kg sc once daily): clearly improved the ability of the dogs to walk | gait at the end of the trial (induced osteoarthritis; dogs, 0.3 mg/kg sc once daily, day 28): relatively sound | blood biochemistry and haematology (induced osteoarthritis; dogs, before surgery and at day 28): No abnormalities were detected | fibrosis of the joint (histopathology) (induced osteoarthritis; [4]): reduced fibrosis | thickening of the synovial membrane (histopathology) (induced osteoarthritis; [4]): reduced thickening of the synovial membrane | discomfort when injected (induced osteoarthritis; dogs, sc in 30% PEG 400 in saline, drug and placebo alike): mild discomfort | site of injection at post mortem (induced osteoarthritis; dogs, sc, dorsum of the neck, day 28): no abnormalities | recovery from surgery (induced osteoarthritis; dogs, versus placebo-treated dogs): recovered from surgery more rapidly | rise in circulating TNFα associated with a dermal Arthus reaction (dermal Arthus reaction; rat serum, FIG. 2): inhibition of the rise in circulating TNFα | vascular leakage associated with a dermal Arthus reaction (dermal Arthus reaction; rat, Evans blue absorbance at 650 nm, FIG. 1): inhibition of the vascular leakage | right knee joint IL-6 level in joint lavage ([2]; FIG. 5): inhibition | right knee joint TNFα level in joint lavage ([2]; FIG. 5): inhibition | arthritic right knee joint swelling ([2]; given orally on Days -2 to +14, FIG. 4): inhibition of arthritic right knee joint swelling | duration of effects of one injection (osteoarthritis [3]): last for weeks
